Measured values reported in patent US11464750B2, “Anticancer agent and use thereof” (priority 2017, dated 2022).

Legend:
Format in all cases: cell-based, human
[1] = test system: cyclin D1; assay: Western blotting, cyclin D1, BALL-1 cells; settings: 0.5 μM
Method: Specifically, BALL-1 cells were cultured for 12, 24, and 48 hours in the presence of 3EZ,20Ac-ingenol at a final concentration of 0.5 μM, and abundances of cyclin D1 in the nuclear fraction and the cytoplasm fraction were analyzed by Western blotting. In addition, cells cultured in the absence of 3EZ,20Ac-ingenol were used as controls.
Whether transfer of cyclin D1 from the nucleus to the cytoplasm is ATR-dependent and PTEN-dependent was examined using siRNA against ATR and siRNA against PTEN. First, siRNA against ATR (“ON-TARGET Plus Human ATR (545) siRNA-SMARTpool,” GE Dharmacon), siRNA against PTEN (“ON-TARGET Plus Human PTEN (5728) siRNA-SMARTpool,” GE Dharmacon), and control siRNA (“ON-TARGET Plus Nontargeting pool,” GE Dharmacon) were respectively introduced into BALL-1 cells at a final concentration of 50 nM, and incubated for 48 hours.
Subsequently, a cell medium was replaced with a new medium containing 3EZ,20Ac-ingenol at a final concentration of 0.5 μM, and culturing was performed for 24 and 48 hours. Subsequently, abundances of cyclin D1 in the nuclear fraction and the cytoplasm fraction were analyzed by Western blotting using an anti-cyclin-D1 antibody (Santa Cruz).

[2] = test system: caspase 3; assay: Western blotting, activated caspase 3, Panc-1 cells; settings: 3 μM, 12 hours after treatment
Method: Specifically, JeKo-1 cells were cultured for 0 (control), 12, 24, and 48 hours in the presence of 0.5 μM of 3EZ,20Ac-ingenol. In addition. Panc-1 cells were cultured for 0 (control), 12, 24, and 48 hours in the presence of 3 μM of 3EZ,20Ac-ingenol. Subsequently, activation of caspase 3 in the respective cells was detected by Western blotting using an anti-activated-caspase antibody (R & D Systems). Furthermore, as a loading control, actin protein was detected using an anti-actin antibody (Sigma).

[3] = test system: p21 protein; assay: Western blotting, p21 protein, Panc-1 cells; settings: 3 μM
Method: (§1) Specifically, JeKo-1 cells were cultured for 0 (control), 12, 24 and 48 hours in the presence of 0.5 μM of 3EZ,20Ac-ingenol. In addition, Panc-1 cells were cultured for 0 (control), 12, 24, and 48 hours in the presence of 3 μM of 3EZ,20Ac-ingenol.
(§2) Subsequently, phosphorylation of H2AX in the respective cells was detected using an anti-phosphorylated-H2AX antibody (Millipore). In addition, p21 protein was detected using an anti-p21 antibody (Cell Signaling Technology). Furthermore, as a loading control, actin protein was detected using an anti-actin antibody (Sigma).

[4] = test system: ATR protein; assay: Western blotting, ATR protein, JeKo-1 cells; settings: 0.5 μM
Method: (§3) Specifically, JeKo-1 cells were cultured for 0 (control), 12, 24, and 48 hours in the presence of 0.5 μM of 3EZ,20Ac-ingenol. In addition, Panc-1 cells were cultured for 0 (control), 12, 24, and 48 hours in the presence of 3 μM of 3EZ,20Ac-ingenol.
(§4) Subsequently, ATR protein, p53 protein, and phosphorylated p53 (hereinafter also referred to as “p-p53”) protein in the respective cells were respectively detected using an anti-ATR antibody (Cell Signaling Technology), an anti-p53 antibody (Santa Cruz), and an anti-p-p53 antibody (Cell Signaling Technology). Furthermore, as a loading control, actin protein was detected using an anti-actin antibody (Sigma).

[5] = test system: GSK-3β; assay: Western blotting, GSK-3β, Panc-1 cells; settings: 3 μM, entire cell, 12 hours
Method: (§5) Specifically, first, JeKo-1 cells were cultured for 0 (control), 12, 24, and 48 hours in the presence of 0.5 μM of 3EZ,20Ac-ingenol. In addition, Panc-1 cells were cultured for 0 (control), 12, 24, and 48 hours in the presence of 3 μM of 3EZ,20Ac-ingenol.
Subsequently, abundances of GSK-3β and p-GSK-3β in the respective cells were analyzed by Western blotting using an anti-GSK-3β antibody (Cell Signaling Technology) and an anti-p-GSK-3β (Ser^9) antibody (Cell Signaling Technology). Furthermore, as a loading control, actin protein was detected using an anti-actin antibody (Sigma).

[6] = test system: Panc-1 cells; assay: Cell Death Detection ELISA, Panc-1; settings: 3 μM
Method: The induction of apoptosis by 3EZ,20Ac-ingenol treatment was examined by detecting histone-binding DNA fragmentation in the cytoplasm using a Cell Death Detection […] kit (Roche Applied Science).
Specifically, Panc-1 cells were inserted into tubes at 5×10^3 cells/well/100 μL, and incubated for 6, 12, 24, 48, and 72 hours in the presence of 3EZ,20Ac-ingenol at a final concentration of 3 μM. Subsequently, the respective cells were lysed in a lysis buffer. Subsequently, the supernatant of cell debris of the respective cells was collected and transferred to an ELISA plate, and an absorbance at a wavelength of 405 nm was measured to measure the induction of apoptosis.

[7] = test system: p-Akt (Ser^473); assay: Western blotting, p-Akt, JeKo-1 cells; settings: 0.5 μM
Method: as §5
Subsequently, by Western blotting using an anti-Akt antibody (Cell Signaling Technology) and an anti-p-Akt (Ser^473) antibody (Cell Signaling Technology), abundances of total amounts of Akt protein and p-Akt in the entire cell fractions, nuclear fractions, and cytoplasm fractions of the respective cells were analyzed. Furthermore, as a loading control, actin protein was detected using an anti-actin antibody (Sigma).

[8] = test system: p53 protein; assay: Western blotting, p53 protein, JeKo-1 cells; settings: 0.5 μM, 12 hours until 48 hours after treatment
Method: as §3, §4

[9] = test system: phosphorylated H2AX (γH2AX); assay: Western blotting, phosphorylated H2AX, Panc-1 cells; settings: 3 μM, 12, 24, 48 hours
Method: as §1, §2

[10] = test system: phosphorylated H2AX (γH2AX); assay: Western blotting, phosphorylated H2AX, JeKo-1 cells; settings: 0.5 μM, 12 hours after treatment
Method: as §1, §2

Compound: CCCCC/C=C\C=C\C(=O)O[C@H]1C(C)=C[C@]23C(=O)[C@@H](C=C(COC(C)=O)[C@@H](O)[C@]12O)[C@H]1[C@@H](C[C@H]3C)C1(C)C [3EZ,20Ac-ingenol, 3-O-(2′E,4′Z-decadienoyl)-20-O-acetylingenol]
- abundance of cyclin D1 ([1]; cytoplasm fraction, 12 hours and 24 hours): increased
- abundance of cyclin D1 ([1]; cytoplasm fraction, after 48 hours): decreased again
- abundance of cyclin D1 ([1]; nuclear fraction, 24 hours): a decrease in abundance of cyclin D1 was observed
- abundance of cyclin D1 ([1]; siRNA against ATR introduced, cytoplasm fraction, 24 hours): abundances of cyclin D1 in the cytoplasm fractions increased
- abundance of cyclin D1 ([1]; siRNA against ATR introduced, cytoplasm fraction, 48 hours): abundances of cyclin D1 in the cytoplasm fractions decreased again
- abundance of cyclin D1 ([1]; siRNA against ATR introduced, nuclear fraction, 24 and 48 hours): an abundance of cyclin D1 was large
- abundance of cyclin D1 ([1]; siRNA against PTEN introduced, cytoplasm fraction, 24 hours): abundances of cyclin D1 in the cytoplasm fractions increased
- abundance of cyclin D1 ([1]; siRNA against PTEN introduced, cytoplasm fraction, 48 hours): abundances of cyclin D1 in the cytoplasm fractions decreased again
- abundance of cyclin D1 ([1]; siRNA against PTEN introduced, nuclear fraction, 24 and 48 hours): an abundance of cyclin D1 was large
- activation of caspase 3 [2]: activation of caspase 3 was observed
- expression of p21 protein ([3]; 12 hours after treatment): induction of a high expression level of p21 protein was observed
- expression of p21 protein ([3]; 48 hours after treatment): a rapid decrease in p21 protein was recognized
- expression level of ATR protein ([4]; 12 hours, further increase 24 hours after treatment): an increase in expression level of ATR protein was recognized
- expression level of ATR protein ([4]; 48 hours after treatment): a decrease was recognized
- GSK-3β (an active type) [5]: an increase in GSK-3β was observed
- DNA fragmentation (apoptosis), onset [6]: DNA fragmentation started 24 hours after the incubation
- amount of fragmented DNA (apoptosis) ([6]; 48 hours and 72 hours): the amount of fragmented DNA further increased
- abundance of p-Akt ([7]; cytoplasm fraction, 12 to 48 hours): a decrease in abundance of p-Akt was clearly recognized
- abundance of p-Akt ([7]; entire cell fraction): a slight decrease in abundance of p-Akt was observed
- abundance of p-Akt ([7]; nuclear fraction): no change in an abundance of p-Akt was recognized
- expression level of p53 protein [8]: an increase in expression level of p53 protein was recognized
- phosphorylation of H2AX [9]: phosphorylation of H2AX was not detected
- phosphorylation of H2AX [10]: phosphorylation of H2AX was detected
